Experimental data: PMC10634346 (Cancer Research Communications, 2023)

Assays:
[1] = system: SU-DHL-4; experiment: CellTiter-Glo cell viability, SU-DHL-4; format: cell-based; conditions: Homo sapiens
Experimental: Human DLBCL cell lines SU-DHL-4 (#ACC 495) and SU-DHL-10 (#ACC 576) were obtained from DSMZ (German Collection of Microorganisms and Cell Cultures). The supplier used PCR-based DNA profiling of polymorphic short tandem repeats for authentication and Mycoplasma testing prior to shipment. Cells were cultured in suspension at 37°C in a humidified atmosphere containing 5% CO2. CDK9 inhibitors KB-0742 (MedChemExpress, #HY-137478A), enitociclib, and atuveciclib ([…] Pharma, Inc.) were used. A subset of 35 lymphoma cell lines is from a 500-cell line panel where the effect of enitociclib on cell viability using CellTiter-Glo luminescent cell viability was determined (OmniScreen, CrownBioscience). Genetic status and gene expression level for MYC and MCL1 was obtained from CrownBioscience.

[2] = system: RNA polymerase II Ser2 phosphorylation (p-Ser2) in SU-DHL-4 cells; experiment: In vitro washout, p-Ser2 Western blot, SU-DHL-4; format: cell-based, human; conditions: 4-hour treatment then washout
Experimental: Evaluation of the pharmacodynamic extent and duration of CDK9 inhibition were performed in vitro using the human DLBCL cell lines SU-DHL-4 and SU-DHL-10, harboring MYC amplification and MYC overexpression with P57T mutation, respectively. Cells were seeded 18 hours prior to treatment for 4 hours with one of three CDK9 inhibitors, enitociclib (0.25 and1 µmol/L), atuveciclib (1 µmol/L) or KB-0742 (1 µmol/L), cells were washed, and incubation continued until 48 hours posttreatment. Samples were collected before treatment (−4), immediately after treatment (0), and at 1, 2, 4, 8, 12, 16, 24, and 48 hours after washout for RNA sequencing (RNA-seq), qPCR, and Western blotting analyses.
The levels of p-Ser2, p-Ser5 and total RNA polymerase II, Myc, Mcl-1, cleaved PARP (cPARP), and cleaved Caspase 3 were assessed by Western blotting and quantified near-infrared detection and background corrected quantification of fluorescence intensity on an Odyssey Imaging System with IRDye secondary antibodies (LI-COR Biosciences). For quantification, the protein levels were normalized to GAPDH or HSP90, expressed as a ratio to DMSO or vehicle control at matched timepoints. The normalized relative protein levels of p-Ser2 were used for a treatment effect comparison by performing an ANOVA using PROC MIXED in SAS. The ANOVA model included treatment, timepoints and their interactions as fixed effects. The least square means (LSM), differences between the LSMs and associated P values were generated. The following primary antibodies were used: Rpb1 NTD (D8L4Y) rabbit antibody [Cell Signaling Technology (CST), #14958], anti-RNA polymerase II subunit B1 (phospho CTD Ser-2, clone 3E10) rat antibody (Merck, 04-1571-I), recombinant anti-c-MYC rabbit antibody (Y69; Abcam, #ab32072), MCL1 (D5V5L) rabbit antibody (CST, #39224), cleaved-PARP (Asp214) (E2T4K) mouse antibody (CST, #32563), HSP90 (C45G5) rabbit antibody (CST, #4877), and GAPDH mouse antibody (Zytomed Systems, #ZYT-RGM2-6C5).

[3] = system: SU-DHL-10 xenografts; experiment: SU-DHL-10 xenograft antitumor efficacy; format: in vivo, C.B-17 SCID mice
Experimental: (§1) A total of 10 × 10^6 SU-DHL-10 cells were inoculated subcutaneously into 6–8 weeks old female C.B-17 SCID mice (Iffa Credo, Brussels). The mice were randomized to treatment groups at a tumor volume of 63–104 mm^3 and treated (intravenously, once weekly) with 10 mg/kg enitociclib (60% PEG400, 10% ethanol, water), 15 mg/kg enitociclib (30% PEG400, 10% ethanol, water), or corresponding vehicle treatments. Mice were around 10–12 weeks of age at the start of study. All animal experiments were performed under the national animal welfare laws of Germany and approved by the local authorities.
Statistical analyses were performed using GraphPad Prism v9 (GraphPad Software). For tumor volumes in SU-DHL-10 xenograft model, statistics were performed using unpaired t test in comparison with the corresponding vehicle treatment. The obtained P values were adjusted for all analyses. Results were considered statistically significant when P < 0.05.

[4] = system: MYC mRNA in SU-DHL-10 tumors; experiment: Pharmacodynamics in SU-DHL-10 xenograft tumors, MYC mRNA qPCR; format: in vivo, C.B-17 SCID mice; conditions: single dose 10 and 15 mg/kg
Experimental: Total RNA was extracted from blood of patients and cell lines using RNeasy Plus Mini Kit (QIAGEN, #74136) and cDNA prepared with the Maxima First Strand cDNA Synthesis Kit for RT-PCR (Thermo Fisher Scientific, K1642) according to manufacturer's instructions. The integrity of purified total RNA was evaluated using an Agilent 2100 Bioanalyzer system and RNA 6000 Nano Kit (Agilent, #5067-1511). Differential gene expression analysis was performed (Fios Genomics) from RNA-seq data (Discovery Life Sciences). MYC and MCL1 mRNA levels were measured by qPCR in vitro and in vivo, using a Taqman qPCR system (Thermo Fisher Scientific), TaqMan Fast Universal PCR Master Mix (2X) no AmpErase (#4352042) and TaqMan probes for MYC (Hs00153408_m1) and MCL1 (Hs03043899_m1). RNA-seq data were analyzed using DESeq2 ([35]).
as §1

Structure (SMILES): COc1cc(F)ccc1-c1cc(Nc2cc(CS(C)(=N)=O)ccn2)ncc1F (stereo not shown) [enitociclib]
- IC50 [1]: 43 nM
- decrease of p-Ser2 levels ([2]; 0.25 µmol/L): 50%
- duration of p-Ser2 decrease ([2]; 0.25 µmol/L): up to 48 hours
- duration of p-Ser2 decrease ([2]; 1 µmol/L): 48 h
- antitumor efficacy (in words) ([3]; 10 mg/kg i.v. once weekly): tumor growth control
- treatment/control (T/C) value ([3]; 10 mg/kg i.v. once weekly, day 16 after treatment start, P = 0.011): 0.19
- antitumor efficacy (in words) ([3]; 15 mg/kg i.v. once weekly, 3-week treatment period): complete regression
- treatment/control (T/C) value ([3]; 15 mg/kg i.v. once weekly, day 20 after treatment start, P < 0.001): 0.005
- tumor growth inhibition reaching, of control ([3]; SU-DHL-10 xenografts): 0.5 % of control
- MYC mRNA in tumors (in words) [4]: depleted by 4 hours postdose
